Laboratory results from patent US5679673A (priority 1994, dated 1997).

What was measured:
NMDA receptor = details: C. Carter et al, J. Pharm Exp. Ther., 1988; cited from earlier work
sigma receptor [1] = target: T1, sigma receptor (Cavia porcellus, UniProt Q60492); experiment: Radioreceptor assay: displacement of [3H](+)-pentazocine from guinea pig brain membranes; type: binding; details: [3H](+)-pentazocine 3 nM, guinea pig brain crude P2 membranes, pH 8.0, 120 min, 25° C.; average of 2-4 experiments; from IC50 by Cheng-Prusoff; read-out: Ki ([3H] (+) -Pent)
T1 construct: crude synaptosomal (P2) membrane fraction of guinea pig brain; tissue Pel-Freeze (frozen guinea pig brains); host or cells: guinea pig brain minus cerebella, crude P2 membranes
T1 sequence (Q60492 whole entry): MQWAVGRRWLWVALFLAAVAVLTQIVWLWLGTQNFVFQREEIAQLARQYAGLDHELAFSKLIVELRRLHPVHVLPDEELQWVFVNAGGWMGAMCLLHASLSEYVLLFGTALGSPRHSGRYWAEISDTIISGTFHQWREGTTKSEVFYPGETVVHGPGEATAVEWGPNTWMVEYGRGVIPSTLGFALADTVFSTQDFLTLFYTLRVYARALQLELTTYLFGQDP

sigma receptor [2] = details: de Costa et al, J. Med. Chem. 1989 and further structure activity studies; cited from earlier work

Row | Compound | NMDA receptor antagonism (NMDA receptor) | sigma receptor ligand (sigma receptor [2]) | further results
1 | 1-(4-chlorophenyl)-2-[1-(4-fluorophenyl)-piperidinyl]ethanol | non-competitive NMDA receptor antagonists |  | 
2 | CC(C(O)c1ccc(O)cc1)N1CCC(Cc2ccccc2)CC1 (centres unmarked) [ifenprodil] | non-competitive NMDA receptor antagonists |  | 
3 | Clc1ccc(CCN2CCN3CCC2CC3)cc1Cl [Compound of Ex. 5, 4-[2-(3,4-Dichlorophenyl)ethyl]-1,4-diazabicyclo[2.2.3]nonane] |  |  | Ki (sigma receptor [1]): 125 nM
4 | CN(CCc1ccc(Cl)c(Cl)c1)[C@@H]1CCCC[C@@H]1N1CCCC1 (single isomer, unassigned) [(+)-cis-N-[3,4-dichlorophenylethyl]-N-methyl-2-(1-pyrrolidinyl)-cyclohexylamine] |  | extremely potent and selective ligands for the sigma receptor | 
5 | CN(CCc1ccc(Cl)c(Cl)c1)[C@@H]1CCCC[C@@H]1N1CCCC1 (single isomer, unassigned) [(-)-cis-N-[3,4-dichlorophenylethyl]-N-methyl-2-(1-pyrrolidinyl)-cyclohexylamine] |  | extremely potent and selective ligands for the sigma receptor | 
